The values below are quoted from earlier work in US10391176B2, “Composition, its preparation and method of use in treating skin disorders” (priority 2016, dated 2019).

SMILES strings stand for the structures.

For the compound `COc1cc(C(=O)NS(=O)(=O)c2ccccc2C)ccc1Cc1cn(C)c2ccc(NC(=O)OC3CCCC3)cc12` [Zafirlukast, 4-(5-cyclopentyloxy-carbonylamino-1-methyl-indol-3-ylmethyl)-3-methoxy-N-o-tolylsulfonylbenzamide], the solubility in acetone entry (acetone) is reported as “freely soluble”. Also, the solubility in dimethylsulfoxide result (dimethylsulfoxide) was “freely soluble”. For the same compound, where the note is “methanol”, the solubility in methanol result is listed as “slightly soluble”. Further, the solubility in tetrahydrofuran entry (tetrahydrofuran) is “freely soluble”. Also, the solubility in water entry (water) was “practically insoluble”.
